Measured values taken from patent publication US6699860B2, “Di-substituted aminomethyl-chroman derivative beta-3 adrenoreceptor agonists” (Bayer Pharmaceuticals Corporation, priority 2000, dated 2004).
Where a name gives a salt, the structure may show the parent alone.

How the values were obtained:
[1] = biological target: T1, human beta-3-adrenergic receptor (Homo sapiens, UniProt P13945); test: cAMP production (SPA) in CHO cells stably expressing human beta-3-adrenergic receptor, agonist activity; type: cell-based; details: cAMP production in CHO cells expressing human beta-3-adrenergic receptor; compounds binned (≦1 μM or >1 μM); read-out: Beta-3 Agonistic Activity, EC50 values
T1 construct: Chinese hamster ovary (CHO) cells that stably express full-length human beta-3-adrenergic receptor; expressed in transfected cells
Experimental: The cell line is grown in 90% F12 nutrient mixture (HAM), 10% fetal bovine serum, 100 units/ml penicillin G sodium, […] streptomycin sulfate, and 2 mM L-glutamine at 37° C. in 95% air and 5% CO2. The transfected cell line is maintained with G418 (800ug/ml).
To test agonist activity, cells are exposed to test compound and then assayed for cAMP production. […] Test compounds are assayed from 10 μM to 3 nM with 3-fold serial dilutions. The control agonist, isoproterenol (10 mM stock in 1.1 mM ascorbate), is assayed by 3-fold dilution beginning at 1 μM. Following a 30-minute incubation with the test compounds, the buffer/compound mixture is removed. […] The cAMP values are then plotted to ascertain the EC50 of each compound tested.

T1 sequence (P13945 whole entry): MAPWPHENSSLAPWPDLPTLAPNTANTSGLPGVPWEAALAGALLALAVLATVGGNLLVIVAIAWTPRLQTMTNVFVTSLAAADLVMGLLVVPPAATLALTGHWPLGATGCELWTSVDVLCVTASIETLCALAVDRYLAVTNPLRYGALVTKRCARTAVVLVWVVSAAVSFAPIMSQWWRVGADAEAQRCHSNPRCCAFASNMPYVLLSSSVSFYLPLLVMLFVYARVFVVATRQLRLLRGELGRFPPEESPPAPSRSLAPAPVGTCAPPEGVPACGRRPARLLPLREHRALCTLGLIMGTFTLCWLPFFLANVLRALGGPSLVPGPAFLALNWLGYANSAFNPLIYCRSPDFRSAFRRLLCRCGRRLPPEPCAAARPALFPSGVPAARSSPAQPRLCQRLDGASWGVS

| SMILES | melting point [°C] | EC50 [1] [µM] |
| --- | --- | --- |
| O=C(O)c1sc(-c2ccc3c(c2)CC[C@H](CNC[C@H](O)COc2ccccc2)O3)nc1-c1ccccc1 [Example 189] |  | ≤ 1 |
| CC(C)c1sc(-c2ccc3c(c2)CC[C@H](CNC[C@H](O)COc2ccccc2)O3)nc1C(=O)O [Example 191] |  | ≤ 1 |
| O=C(O)c1ccc(-c2ccc3c(c2)CC[C@H](CNC[C@H](O)COc2ccccc2)O3)cc1NC1CCCCC1 [Example 197] |  | ≤ 1 |
| O=C(O)c1ccc(-c2ccc3c(c2)CC[C@H](CNC[C@H](O)COc2ccccc2)O3)cc1NC1CCC1 [Example 201] |  | ≤ 1 |
| CCCOc1cc(-c2ccc3c(c2)CC[C@H](CNC[C@H](O)COc2ccccc2)O3)ccc1C(=O)O [Example 208] |  | ≤ 1 |
| COCCOc1cc(-c2ccc3c(c2)CC[C@H](CNC[C@H](O)COc2ccccc2)O3)ccc1C(=O)O [Example 210] |  | ≤ 1 |
| Cc1ccc(-c2cc(-c3ccc4c(c3)CC[C@H](CNC[C@H](O)COc3ccccc3)O4)ccc2C(=O)O)cc1 [Example 217] |  | ≤ 1 |
| Cc1cc(C)c(OCC(O)CNC[C@H]2CCc3cc(-c4ccc(C(=O)O)cc4)ccc3O2)c(C)c1 (some centres unmarked) [Example 222] |  | > 1 |
| Cc1ccccc1OCC(O)CNC[C@H]1CCc2cc(-c3ccc(C(=O)O)cc3)ccc2O1 (some centres unmarked) [Example 227] |  | ≤ 1 |
| O=C(O)c1ccc(-c2ccc3c(c2)CC[C@H](CNCC(O)COc2ccc(F)cc2)O3)cc1 (some centres unmarked) [Example 232] |  | ≤ 1 |
| O=C(O)c1ccc(-c2ccc3c(c2)CC[C@H](CNC[C@H](O)COc2ccccc2Cl)O3)cc1 [Example 252] |  | ≤ 1 |
| O=C(O)c1ccc(-c2ccc3c(c2)CC[C@H](CNC[C@H](O)COc2ccccc2F)O3)cc1 [Example 253] |  | ≤ 1 |
| O=C(O)CCc1ccc2c(c1)CC[C@H](CNC[C@H](O)COc1ccccc1Cl)O2 [Example 264, 3-[(2R)-2-({[(2S)-3-(2-chlorophenoxy)-2-hydroxypropyl]amino}methyl)-3,4-dihydro-2H-chromen-6-yl]propanoic acid] |  | ≤ 1 |
| O=C(O)CCc1ccc2c(c1)CC[C@H](CNC[C@H](O)COc1ccc(Cl)cc1)O2 [Example 267] |  | > 1 |

The remaining lines, values ahead:

| melting point [°C] | EC50 [1] [µM] | SMILES |
| --- | --- | --- |
| 250 |  | O=C(O)c1ccc(-c2ccc3c(c2)CC[C@H](CNC[C@H](O)COc2ccccc2)O3)cc1 (as salt: hydrochloride) [Example 142, 4-[(2R)-2-({[(2S)-2-Hydroxy-3-phenoxyropyl]amino}methyl)-3,4-dihydro-2H-chromen-6-yl]benzoic acid] |
|  | ≤ 1 | CC(C)c1nc(-c2ccc3c(c2)CC[C@H](CNC[C@H](O)COc2ccccc2)O3)sc1C(=O)O [Example 190] |
|  | ≤ 1 | CCCCNc1cc(-c2ccc3c(c2)CC[C@H](CNC[C@H](O)COc2ccccc2)O3)ccc1C(=O)O [Example 195, 2-(butylamino)-4-[(2R)-2-({[(2)-2-hydroxy-3-(phenyloxy)propyl]amino}methyl)-3,4-dihydro-2H-chromen-6-yl]benzoic acid] |
|  | ≤ 1 | Nc1cc(-c2ccc3c(c2)CC[C@H](CNC[C@H](O)COc2ccccc2)O3)ccc1C(=O)O [Example 198] |
|  | ≤ 1 | CCN(CC)c1cc(-c2ccc3c(c2)CC[C@H](CNC[C@H](O)COc2ccccc2)O3)ccc1C(=O)O [Example 199] |
|  | ≤ 1 | CC(C)CNc1cc(-c2ccc3c(c2)CC[C@H](CNC[C@H](O)COc2ccccc2)O3)ccc1C(=O)O [Example 200] |
|  | ≤ 1 | O=C(O)c1ccc(-c2ccc3c(c2)CC[C@H](CNC[C@H](O)COc2ccccc2)O3)cc1N1CCCCC1 [Example 202] |
|  | ≤ 1 | CCOc1cc(-c2ccc3c(c2)CC[C@H](CNC[C@H](O)COc2ccccc2)O3)ccc1C(=O)O [Example 207] |
|  | ≤ 1 | CC(C)Oc1cc(-c2ccc3c(c2)CC[C@H](CNC[C@H](O)COc2ccccc2)O3)ccc1C(=O)O [Example 211] |
|  | ≤ 1 | CCCCOc1cc(-c2ccc3c(c2)CC[C@H](CNC[C@H](O)COc2ccccc2)O3)ccc1C(=O)O [Example 212] |
|  | ≤ 1 | O=C(O)c1ccc(-c2ccc3c(c2)CC[C@H](CNC[C@H](O)COc2ccccc2)O3)cc1-c1ccc(Cl)cc1 [Example 216] |
|  | ≤ 1 | CC(C)(C)c1ccc(-c2cc(-c3ccc4c(c3)CC[C@H](CNC[C@H](O)COc3ccccc3)O4)ccc2C(=O)O)cc1 [Example 220] |
|  | > 1 | COc1ccc(OCC(O)CNC[C@H]2CCc3cc(-c4ccc(C(=O)O)cc4)ccc3O2)cc1 (some centres unmarked) [Example 230] |
|  | ≤ 1 | O=C(O)c1ccc(-c2ccc3c(c2)CC[C@H](CNCC(O)COc2ccccc2Cl)O3)cc1 (some centres unmarked) [Example 234] |
|  | ≤ 1 | O=C(O)c1ccc(-c2ccc3c(c2)CC[C@H](CNCC(O)COc2ccccc2-c2ccccc2)O3)cc1 (some centres unmarked) [Example 239] |
|  | ≤ 1 | O=C(O)c1ccc(-c2ccc3c(c2)CC[C@H](CNC[C@H](O)COc2cccc(Cl)c2)O3)cc1 [Example 254] |
|  | ≤ 1 | O=C(O)CCc1ccc2c(c1)CC[C@H](CNC[C@H](O)COc1ccccc1)O2 [Example 263, 3-[(2R)-2-({[(2S)-2-Hydroxy-3-phenoxypropyl]amino}methyl)-3,4-dihydro-2H-chromen-6-yl]propanoic acid] |
|  | ≤ 1 | O=C(O)CCc1ccc2c(c1)CC[C@H](CNC[C@H](O)COc1ccccc1F)O2 [Example 265, 3-[(2R)-2-({[(2S)-3-(2-Fluorophenoxy)-2-hydroxypropyl]amino}methyl)-3,4-dihydro-2H-chromen-6-yl]propanoic acid] |
|  | > 1 | O=C(O)CCc1ccc2c(c1)CC[C@H](CNC[C@H](O)COc1cccc(Cl)c1)O2 [Example 266] |
|  | ≤ 1 | O=C(O)CCc1ccc2c(c1)CC[C@H](CNC[C@H](O)COc1ccc(F)cc1)O2 [Example 268] |
|  | > 1 | NC(=O)c1cc2c(OCC(O)CNC[C@H]3CCc4cc(CCC(=O)O)ccc4O3)cccc2[nH]1 (some centres unmarked) [Example 270] |
